The values below come from patent US7910588B2, “5-HT7 receptor antagonists” (Eli Lilly and Company, priority 2007, dated 2011).

The term Ki denotes a measure of affinity in units of concentration, obtained from inhibition or displacement. Low readings indicate tighter binding, high ones weaker binding.

One test deals with T1, 5-HT1A (Homo sapiens, UniProt P08908).
T1 construct: expressed in transfected cells
T1 sequence (P08908 1-422): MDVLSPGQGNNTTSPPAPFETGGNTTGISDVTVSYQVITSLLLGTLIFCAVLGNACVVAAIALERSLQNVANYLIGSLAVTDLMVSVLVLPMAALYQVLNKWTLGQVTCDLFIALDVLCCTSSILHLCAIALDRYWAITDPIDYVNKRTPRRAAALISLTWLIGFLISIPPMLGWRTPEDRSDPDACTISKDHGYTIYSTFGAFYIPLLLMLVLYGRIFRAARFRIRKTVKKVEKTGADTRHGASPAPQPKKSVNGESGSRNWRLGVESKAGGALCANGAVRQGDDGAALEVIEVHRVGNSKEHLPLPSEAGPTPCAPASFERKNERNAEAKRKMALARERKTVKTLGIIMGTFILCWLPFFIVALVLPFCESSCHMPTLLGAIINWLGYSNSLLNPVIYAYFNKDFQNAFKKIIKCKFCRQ
Description: Radioligand binding assay, 5-HT1A. On the procedure: (§1) [^3H] […] The reactions are incubated at room temperature for 3 hr. and then counted in a Trilux Microbeta™ scintillation counter to detect receptor-bound radioligand. Binding data are analyzed by computer-assisted 4 parameter fit analysis (ID Business Solutions Ltd, Guildford, Surrey, UK). […]
(§2) Affinity for other serotonin receptor subtypes as well as for alpha 1 & 2 adrenergic receptors can readily be determined by modification of the above described radioligand receptor binding assay using membranes derived from cells stably expressing the desired receptor subtype including the 5-HT1A, 5-HT1B, and 5-HT1D subtypes, as well as the 5-HT2A, 5-HT2B, 5-HT2C, 5-HT4, 5-HT7, and 5-HT6 receptor subtypes. […]

Test [1] relates to dural plasma protein extravasation. Description: Animal model of dural plasma protein extravasation (PPE). In kind it is in vivo. The note with it: rat. From the text: The dural plasma protein extravasation model is an established model for migraine. The ability of a test compound to reduce extravasation of plasma proteins into the dura under assay conditions is considered indicative of the compound's ability to reduce or prevent the dural inflammation thought to be symptomatic of migraine. (see Johnson, K. W., et al., Neuroreport, 8 (1997) 2237-2240.)
To assay compounds for their ability to reduce or prevent dural plasma protein extravasation, male Harlan Sprague-Dawley rats (250-350 g) are anesthetized with sodium pentobarbital (65 mg/kg, i.p.) and placed in a stereotaxic frame (David Kopf Instruments) with the incisor bar set at −2.5 mm. Following a midline sagital scalp incision, 2 pairs of bilateral holes are drilled through the skull (3.2 mm posterially, 1.8 and 3.8 mm laterally, all coordinates referenced to bregma). […]
The amount of FITC-BSA for each sample is quantified with a fluorescence microscope (Zeiss) equipped with a grating monochromator, a spectrophotometer, and a computer driven stage. Fluorescence measurements are taken at 25 points in a 5×5 grid in 500 μm steps on each dural sample with an excitation wavelength of approximately 490 nm and emission intensity measured at approximately 535 nm. The mean and standard deviation of the 25 measurements are determined. […]

The next test concerns the target T2, 5-HT1D (Homo sapiens, UniProt P28221).
T2 construct: expressed in transfected cells
Description: Radioligand binding assay, 5-HT1D. On the procedure:
as §1, §2

T2 sequence (P28221 whole entry, species assumed): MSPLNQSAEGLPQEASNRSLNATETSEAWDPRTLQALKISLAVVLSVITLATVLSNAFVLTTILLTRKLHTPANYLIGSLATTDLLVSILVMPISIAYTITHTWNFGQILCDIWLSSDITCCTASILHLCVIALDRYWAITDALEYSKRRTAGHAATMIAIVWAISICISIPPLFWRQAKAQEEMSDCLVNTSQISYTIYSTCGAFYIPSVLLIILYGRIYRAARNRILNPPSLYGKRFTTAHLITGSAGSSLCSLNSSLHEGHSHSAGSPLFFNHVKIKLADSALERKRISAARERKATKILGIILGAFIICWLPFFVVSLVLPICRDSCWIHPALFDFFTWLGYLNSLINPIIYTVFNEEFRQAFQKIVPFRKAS

With `CCn1ncc(CN2CCN(c3cccnc3N3CCC(O)CC3)CC2)c1C.Cl` [Example 1, 3′-[4-(1-Ethyl-5-methyl-1H-pyrazol-4-ylmethyl)-piperazin-1-yl]-3,4,5,6-tetrahydro-2H-[1,2]bipyridinyl-4-ol hydrochloride], the results for the Ki on 5-HT1A and at 5-HT1D were 213 nM and 1840 nM, respectively. In addition, the “ratio of extravasation in the dura, stimulated side over unstimulated side” value in test [1] (at 0.1 mg/Kg, saline control approximately 2.0, full prevention approximately 1.0) is “about 1.15”. This molecule returned an ID100 in test [1] (electrical stimulation of trigeminal ganglion, route not stated for the result) of 0.1 mg/kg.
